# Patent US20250230226A1, “PLXDC1/PLXDC2 ACTIVATORS AND THEIR USE IN THE TREATMENT OF BLOOD VESSEL DISORDERS” (THE REGENTS OF THE UNIVERSITY OF CALIFORNIA, priority 2019, published 2025)
# Experiments:
# [1] = tested on: LL/2 lung cancer tumor endothelial cells; assay: Lung LL2 ex vivo model of tumor angiogenesis; format: cell-based, mouse; details: for Cell death / 48 hrs (morphology observations): 40 μm; for Cell death: drug treatment for two days, ratio of red area to total endothelial cell area; for 48 hrs (morphology observations): LL/2 tumor endothelial cells; for cytotoxicity at 40 µM: Mus musculus, Endothelial cell, 48 h, read-out: Cell death
# Summary of the method: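 LL2 mouse tumor fragments (~0.075 mm³) embedded in Matrigel and cultured in endothelial growth medium at 37 °C until endothelial outgrowth (~4 days) before treatment. Cell death assessed e.g. 48 h after drug by fluorescein diacetate (live)/propidium iodide (dead) staining and red/green fluorescence imaging.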
# [2] = tested on: CT26.CL25 colon cancer tumor endothelial cells; assay: Colon CT26 ex vivo model of tumor angiogenesis; format: cell-based, mouse; details: for 48 hrs (morphology observations after 48 hours): Conc. 40 μm; for cytotoxicity at 40 µM: Mus musculus, Endothelial cell, 48 h, read-out: Cell death
# Description: An ex vivo tumor angiogenesis model was developed to test the efficacy of anti-cancer candidate agents. The following protocol describes the Ex Vivo Tumor Angiogenesis Model.
# • 1. The day before the experiment, all necessary tools were sprayed with 70% ethanol and sterilized under UV light overnight, including blade, dissecting and micro-dissecting scissors and […]. 24-well dishes were placed at 4° C. to pre-chill plates and Matrigel was thawed, 24 hours before tumor dissection. • 2. 70% ethanol was sprayed on working bench. Two sterile petri dishes were prepared with 10 ml sterile PBS. The following steps 3 and 4 are necessary for mouse tumor models. For fresh human tumor, steps 3 and 4 are skipped. • 3. The tumor-bearing mice were euthanized. 70% ethanol was sprayed on the mouse and the tumor was removed using sterilized dissecting tools (avoid the fur). The tumor was rinsed in petri dish with sterile PBS to remove ethanol and fur. The tumor was transferred to a new petri dish with PBS for dissection. The dish is placed on ice. • 4. Pre-chilled sterile pipet tips were used to seed regular Matrigel in 24 well plates on ice. Matrigel (30 μl) was dropped in the middle of each well without touching the edge of the well (avoid introducing bubbles if possible). • 5. The tumor was cut in halves using the sterile blade. Healthy tumor tissue that is not necrotic and is within the tumor capsule was identified and isolated. The healthy tumor tissue was cut into small pieces. For instance, a suitable size for the tumor tissue is 0.5 mm (H)×0.5 mm (L)×0.3 mm (D) with a total volume of 0.075 mm^3. • 6. Each tumor piece was gently transferred and embedded in the Matrigel drop in the 24-well plate. The embedded piece was placed in the bottom and middle of each Matrigel drop. The plate was kept on ice all the time. • 7. After seeding the tumor pieces, plates were incubated in a 37° C. cell culture incubator without medium for 10 minutes in order for the Matrigel to solidify. • 8. Endothelial Growth Medium (0.5 ml) was added to each well and incubated at 37° C. with 5% CO2. Treatment was not added until the new endothelial cells was grown out of the tumor or were larger than 3 mm in diameter. This usually takes 4 days for the LL2 Lewis lung cancer model and 7 days for the CT26 colon cancer model. For human tumor models, the growth time is typically 2-3 weeks, depending on the tumor type. Media was changed every 4 days during prolonged culture. Typically, when the tumor tissue grows to 2 mm in diameter, it was good for drug testing. A size of about 3 mm in diameter can make visualization easier. • 9. When the assay was ready to be analyzed for cell death (e.g., 48 hours after drug addition), the dye mixture was prepared by mixing 6 μl of green dye to stain live cells (5 mg/ml Fluorescein diacetate or FDA in DMSO) with 30 μl of red dye (2.5 mg/ml Propidium iodide or PI in PBS) to stain dead cells in an Eppendorf tube. The FDA dye needs to be stored frozen in a −20° C. freezer because it has a labile ester bond. • 10. 1 μl of the dye mixture was added to each well of the 24-well dish. It is usually preferred to do one 24-well dish at a time given the amount of time needed to take pictures (the green dye is not as stable in the cells in the long term). • 11. The dish was gently rocked a few times to mix the dye with the media in the wells and incubate the dish at 37° C. for 10 min (too long incubation can make the green signal too intense). • 12. Each well was washed with 0.5 ml of sterile PBS and then 0.5 ml of phenol red free SFM was added to each well. Alternatively 0.5 ml of regular Endothelial Cell Growth Media can be added to each well if this well needs to be continuously maintained after the experiment. • 13. An inverted microscope using the 2× objective lens was used to observe morphological changes in the experimental wells. • 14. […]
smiles,measurement,setting,value
CCc1ccc(S(=O)(=O)c2cnc3ccc(OC(F)(F)F)cc3c2N2CCCN(CC(=O)O)CC2)cc1 [Compound 42],Cell death,[1],30%
same,48 hrs (morphology observations after 48 hours),[2],0
same,cytotoxicity at 40 µM,[2],0%
COc1ccc(S(=O)(=O)c2cnc3ccc(OC(F)(F)F)cc3c2N2CCC(N3CCCCC3)CC2)cc1 [Compound 43],48 hrs (morphology observations),[1],*** (more than 50% but less than 100% of endothelial cells vesicularize in cell shape)
same,Cell death,[1],100%
same,48 hrs (morphology observations after 48 hours),[2],*** (100% of endothelial cells vesicularize in cell shape)
same,cytotoxicity at 40 µM,[2],90%
COc1ccc(S(=O)(=O)c2cnc3ccc(OC(F)(F)F)cc3c2N2CCC(O)CC2)cc1 [Compound 44],Cell death,[1],50%
same,48 hrs (morphology observations after 48 hours),[2],0
same,cytotoxicity at 40 µM,[2],0%
CCc1ccc(S(=O)(=O)c2cnc3ccc(OC(F)(F)F)cc3c2N2CCN(c3ccc(C#N)cc3)CC2)cc1 [Compound 45],cytotoxicity at 40 µM,[1],10%
same,48 hrs (morphology observations after 48 hours),[2],0
same,cytotoxicity at 40 µM,[2],0%
CCc1ccc(S(=O)(=O)c2cnc3ccc(OC(F)(F)F)cc3c2N2CCC(N3CCCC3)CC2)cc1 [Compound 46],48 hrs (morphology observations),[1],**** (100% of endothelial cells vesicularize in cell shape and look flattened in morphology (indicating disintegration of the cell body))
same,cytotoxicity at 40 µM,[1],100%
same,48 hrs (morphology observations after 48 hours),[2],**** (100% of endothelial cells vesicularize in cell shape and look flattened in morphology (indicating disintegration of the cell body))
same,cytotoxicity at 40 µM,[2],100%
CCOC(=O)C1CCN(c2c(S(=O)(=O)c3ccc(CC)cc3)cnc3ccc(OC(F)(F)F)cc23)CC1 [Compound 47],Cell death,[1],50%
same,48 hrs (morphology observations after 48 hours),[2],0
same,cytotoxicity at 40 µM,[2],10%
CCc1ccc(S(=O)(=O)c2cnc3ccc(OC(F)(F)F)cc3c2N2CCC(CO)CC2)cc1 [Compound 48],Cell death,[1],60%
same,48 hrs (morphology observations after 48 hours),[2],0
same,cytotoxicity at 40 µM,[2],10%
CCc1ccc(S(=O)(=O)c2cnc3ccc(OC(F)(F)F)cc3c2N(C)Cc2ccccc2)cc1 [Compound 49],Cell death,[1],30%
same,48 hrs (morphology observations after 48 hours),[2],0
same,cytotoxicity at 40 µM,[2],10%
CCc1ccc(S(=O)(=O)c2cnc3ccc(OC(F)(F)F)cc3c2NN2CCN(C)CC2)cc1 [Compound 50],48 hrs (morphology observations),[1],*** (more than 50% but less than 100% of endothelial cells vesicularize in cell shape)
same,Cell death,[1],90%
same,48 hrs (morphology observations after 48 hours),[2],*** (100% of endothelial cells vesicularize in cell shape)
same,cytotoxicity at 40 µM,[2],100%
CN1CCCN(c2c(S(=O)(=O)c3ccc([N+](=O)[O-])cc3)cnc3ccc(OC(F)(F)F)cc23)CC1 [Compound 60],48 hrs (morphology observations after 48 hours),[2],0
same,cytotoxicity at 40 µM,[2],5%
CCCCOc1ccc2ncc(S(=O)(=O)c3ccc(OC)c(OC)c3)c(N(CC)CC)c2c1 [Compound 123],48 hrs (morphology observations after 48 hours),[2],0
same,cytotoxicity at 40 µM,[2],20%
CCCCN(CCCC)c1c(S(=O)(=O)c2ccc(OC)c(OC)c2)cnc2ccc(SC)cc12 [Compound 124],48 hrs (morphology observations after 48 hours),[2],0
same,cytotoxicity at 40 µM,[2],20%
CCOC(=O)c1ccc2ncc(S(=O)(=O)c3ccc(CC)cc3)c(N3CCC(O)(c4ccc(CC)cc4)CC3)c2c1 [Compound 128],48 hrs (morphology observations after 48 hours),[2],0
same,cytotoxicity at 40 µM,[2],10%
CCc1ccc(C2(O)CCN(c3c(S(=O)(=O)c4ccc(OC)cc4)cnc4ccc(OC(F)(F)F)cc34)CC2)cc1 [Compound 129],48 hrs (morphology observations after 48 hours),[2],0
same,cytotoxicity at 40 µM,[2],0%
CCOC(=O)c1ccc2ncc(S(=O)(=O)c3ccc(CC)cc3)c(N3CCC(N4CCC(O)CC4)CC3)c2c1 [Compound 130],48 hrs (morphology observations after 48 hours),[2],0
same,cytotoxicity at 40 µM,[2],40%
CCOC(=O)c1ccc2ncc(S(=O)(=O)c3ccc(CC)cc3)c(N3CCCN(CCN(CC)CC)CC3)c2c1 [Compound 131],48 hrs (morphology observations after 48 hours),[2],** (more than 50% but less than 100% of endothelial cells vesicularize in cell shape)
same,cytotoxicity at 40 µM,[2],50%
CCOC(=O)c1ccc2ncc(S(=O)(=O)c3ccc(CC)cc3)c(N3CCC(OCCN(CC)CC)CC3)c2c1 [Compound 132],48 hrs (morphology observations after 48 hours),[2],* (50% or less of cells vesicularize in cell shape)
same,cytotoxicity at 40 µM,[2],40%
CCOC(=O)c1ccc2ncc(S(=O)(=O)c3ccc(CC)cc3)c(N3CCCC(O)C3)c2c1 (stereo not shown) [Compound 135],48 hrs (morphology observations after 48 hours),[2],0
same,cytotoxicity at 40 µM,[2],30%
CCOC(=O)c1ccc2ncc(S(=O)(=O)c3ccc(OC)cc3)c(N3CCC(N4CCCCC4)CC3)c2c1 [Compound 136],48 hrs (morphology observations after 48 hours),[2],0
same,cytotoxicity at 40 µM,[2],30%
CCOC(=O)c1ccc2ncc(S(=O)(=O)c3ccc(OC)cc3)c(N3CCCC(O)C3)c2c1 (stereo not shown) [Compound 137],48 hrs (morphology observations after 48 hours),[2],0
same,cytotoxicity at 40 µM,[2],40%
CCOC(=O)c1ccc2ncc(S(=O)(=O)c3ccc(OC)cc3)c(N3CCC(N4CCC(O)CC4)CC3)c2c1 [Compound 138],48 hrs (morphology observations after 48 hours),[2],0
same,cytotoxicity at 40 µM,[2],20%
CCOC(=O)c1ccc2ncc(S(=O)(=O)c3ccc(OC)cc3)c(N3CCCN(CCN(CC)CC)CC3)c2c1 [Compound 139],48 hrs (morphology observations after 48 hours),[2],0
same,cytotoxicity at 40 µM,[2],40%
CCOC(=O)c1ccc2ncc(S(=O)(=O)c3ccc(OC)cc3)c(N3CCC(OCCN(CC)CC)CC3)c2c1 [Compound 140],48 hrs (morphology observations after 48 hours),[2],** (more than 50% but less than 100% of endothelial cells vesicularize in cell shape)
same,cytotoxicity at 40 µM,[2],60%
CCOC(=O)c1ccc2ncc(S(=O)(=O)c3ccc(OC)cc3)c(N3CCCN(C)CC3)c2c1 [Compound 144],48 hrs (morphology observations after 48 hours),[2],0
same,cytotoxicity at 40 µM,[2],30%
CCc1ccc(S(=O)(=O)c2cnc3ccc(OC(F)(F)F)cc3c2N2CCC(O)(c3ccc(OC)cc3)CC2)cc1 [Compound 145],48 hrs (morphology observations after 48 hours),[2],0
same,cytotoxicity at 40 µM,[2],30%
COc1ccc(S(=O)(=O)c2cnc3ccc(OC(F)(F)F)cc3c2N2CCC(O)(c3cccc(OC)c3)CC2)cc1 [Compound 146],48 hrs (morphology observations after 48 hours),[2],0
same,cytotoxicity at 40 µM,[2],0%
CCc1ccc(S(=O)(=O)c2cnc3ccc(OC(F)(F)F)cc3c2N2CCC(O)(c3ccc4c(c3)OCO4)CC2)cc1 [Compound 147],48 hrs (morphology observations after 48 hours),[2],0
same,cytotoxicity at 40 µM,[2],0%
CCOC(=O)c1ccc2ncc(S(=O)(=O)c3ccc(CC)cc3)c(N3CCC(O)(c4ccc(OC)cc4)CC3)c2c1 [Compound 148],48 hrs (morphology observations after 48 hours),[2],0
same,cytotoxicity at 40 µM,[2],0%
CCOC(=O)c1ccc2ncc(S(=O)(=O)c3ccc(CC)cc3)c(N3CCC(O)(c4cccc(OC)c4)CC3)c2c1 [Compound 149],48 hrs (morphology observations after 48 hours),[2],* (50% or less of cells vesicularize in cell shape)
same,cytotoxicity at 40 µM,[2],20%
CCc1ccc(S(=O)(=O)c2cnc3ccc(OC(F)(F)F)cc3c2N2CCC(O)(c3cccc(OC)c3)CC2)cc1 [Compound 150],48 hrs (morphology observations after 48 hours),[2],0
same,cytotoxicity at 40 µM,[2],10%
COc1ccc(S(=O)(=O)c2cnc3ccc(SC)cc3c2N2CCC(N3CCC(O)CC3)CC2)cc1OC [Compound 153],48 hrs (morphology observations after 48 hours),[2],* (50% or less of cells vesicularize in cell shape)
same,cytotoxicity at 40 µM,[2],20%
CCCCOc1ccc(S(=O)(=O)c2cnc3ccc(SC)cc3c2N2CCCN(CCN3CCCC3)CC2)cc1 [Compound 207],48 hrs (morphology observations after 48 hours),[2],**** (100% of endothelial cells vesicularize in cell shape and look flattened in morphology (indicating disintegration of the cell body))
same,cytotoxicity at 40 µM,[2],100%
